Test [1] relates to Lactobacillus strains (L. rhamnosus BCRC 10940, L. paracasei BCRC 14001, L. delbrueckii BCRC 14008). As to the kind of experiment: antimicrobial activity (MIC), microtitre plate-based method. Format: cell-based. Particulars: 10^5 cfu/ml, 37° C., 24 h, MRS medium, triplicate; read-out: minimal inhibitory concentration (MIC). The protocol:
(§1) Three Lactobacillus strains, L. rhamnosus BCRC 10940, L. paracasei BCRC 14001, L. delbrueckii BCRC 14008, were purchased from the FIRDI, which were cultured in MRS w/o agar medium (Difco) and stored at 4° C. To activate the bacteria, the cells were inoculated in MRS medium at a concentration of 5% (v/v) and cultured at 37° C. for 24 hours, and then 10^7 cells/ml of each of the three Lactobacillus strains was inoculated in 5 ml of MRS medium with shaking overnight.
(§2) Antimicrobial activity of antibiotics against the three Lactobacillus strains was measured by a microtitre plate-based method. […] 10 μl of activated bacterial cultures was added to each well to achieve a concentration of 10^5 cfu/ml per well, and the plates were incubated at 37° C. for 24 h. The growth of the bacteria was measured by absorbance at 600 nm and the survival percentages were determined. Further, the minimal inhibitory concentration (MIC) was determined as the lowest concentration of the antibiotics allowing no visible growth of the bacteria. Data are the averages of a triplicate experiment.

Test [2] deals with L. rhamnosus. As to the kind of experiment: microtitre plate-based growth assay, cell number (Table 3). Also on record: species or system L. rhamnosus BCRC 10940. As to the method:
as §1, §2
(§3) On the other hand, the fermented soy extract prepared of the invention as in Example 1 was analyzed for its prebiotic activity to support the growth of beneficial bacteria using the microtitre plate-based method as described above. The fermented soy extract of the invention was added at a concentration of 5% into the wells and the plates were incubated at 37° C. for 48 h. The cell number was counted.

Test [3] has as its system L. paracasei. Described as above. Details: species or system L. paracasei BCRC 14001. As to the method: as §1, §2, §3
For test [4], the system named is L. delbrueckii. The test is described as above. Details: species or system L. delbrueckii BCRC 14008. As to the method: as §1, §2, §3
Test [5] has as its system L. delbrueckii. As to the kind of experiment: simultaneous treatment of antibiotics and fermented soy extract, survival counting. It is filed as cell-based. The following applies: FSE 5% where added, 48 h. The protocol: as §1
(§4) The plates were incubated at 37° C. for 48 h.

For test [6], the system named is L. paracasei. The description is as above. Format: cell-based. Particulars: FSE 5% where added, 48 h. The protocol:
as §1, §4

For test [7], the system named is L. rhamnosus. The description is as above. Format: cell-based. The following applies: FSE 5% where added, 48 h. As to the method:
as §1, §4

In brackets after ≈: the same amount, converted by molar mass.

In the case of `CC[C@H]1OC(=O)[C@H](C)[C@@H](O[C@H]2C[C@@](C)(OC)[C@@H](O)[C@H](C)O2)[C@H](C)[C@@H](O[C@@H]2O[C@H](C)C[C@H](N(C)C)[C@H]2O)[C@](C)(O)C[C@@H](C)C(=O)[C@H](C)[C@@H](O)[C@]1(C)O` [Eryc, erythromycin], the MIC in test [1] amounted to 1 µg/mL (≈ 1.36 µM). Besides, the “cell number L. rhamnosus” value in the test on L. rhamnosus [2] (antibiotic 2 μg) was 5.07 × 10^4. The “cell number L. paracasei” value in the test on L. paracasei [3] (antibiotic 2 μg) is recorded as 3.18 × 10^5. For the same compound, the “cell number L. delbrueckii” value with L. delbrueckii [4] (antibiotic 2 μg) was 3.16 × 10^5.

`CC1(C)S[C@@H]2[C@H](NC(=O)[C@H](N)c3ccc(O)cc3)C(=O)N2[C@H]1C(=O)O` [AMO, amoxicillin]: the MIC in test [1] turned out to be 3.6 µg/mL (≈ 9.85 µM). Further, the “cell number L. rhamnosus” value in the test with L. rhamnosus [2] (antibiotic 2 μg) is 3.40 × 10^3. Besides, the “cell number L. paracasei” value with L. paracasei [3] (antibiotic 2 μg) is reported as 2.00 × 10^4. Also, the “cell number L. delbrueckii” value in the test with L. delbrueckii [4] (antibiotic 2 μg) is 5.00 × 10^4. For the same compound, the “survival counting L. delbrueckii” value in the test with L. delbrueckii [5] (antibiotic 2 μg/ml) was determined as 6670 ± 610; with L. delbrueckii [5] (antibiotic 5 μg/ml) it was 1170 ± 76. Further, the “survival counting L. paracasei” value in the test on L. paracasei [6] (antibiotic 2 μg/ml) was 3000 ± 500; in the test with L. paracasei [6] (antibiotic 5 μg/ml), 4300 ± 445. Besides, the “survival counting L. rhamnosus” value with L. rhamnosus [7] (antibiotic 2 μg/ml) came out at 500 ± 50; with L. rhamnosus [7] (antibiotic 5 μg/ml) it was 370 ± 10.

For the compound `CC1(C)S[C@@H]2[C@H](NC(=O)[C@H](N)c3ccccc3)C(=O)N2[C@H]1C(=O)O` [AMP, ampicillin], in test [1], the MIC stood at 3.6 µg/mL (≈ 10.3 µM). For the same compound, the “cell number L. rhamnosus” value in the test with L. rhamnosus [2] (antibiotic 2 μg) is 6.30 × 10^4. Further, in the test with L. paracasei [3] (antibiotic 2 μg), the “cell number L. paracasei” value is recorded as 3.29 × 10^6. Moreover, in the test with L. delbrueckii [4] (antibiotic 2 μg), the “cell number L. delbrueckii” value was 5.58 × 10^6. The “survival counting L. delbrueckii” value in the test with L. delbrueckii [5] (antibiotic 2 μg/ml) was 4330 ± 260. Also, the “survival counting L. paracasei” value is on record as 3670 ± 350 in the test with L. paracasei [6] (antibiotic 2 μg/ml) and 4700 ± 409 in the test on L. paracasei [6] (antibiotic 5 μg/ml). In addition, the “survival counting L. rhamnosus” value with L. rhamnosus [7] (antibiotic 2 μg/ml) is on record as 967 ± 76; with L. rhamnosus [7] (antibiotic 5 μg/ml), 230 ± 15.

With `CC[C@H]1OC(=O)[C@H](C)[C@@H](O[C@H]2C[C@@](C)(OC)[C@@H](O)[C@H](C)O2)[C@H](C)[C@@H](O[C@@H]2O[C@H](C)C[C@H](N(C)C)[C@H]2O)[C@](C)(OC)C[C@@H](C)C(=O)[C@H](C)[C@@H](O)[C@]1(C)O` [CAM, clarithromycin], in test [1], the MIC was 1 µg/mL (≈ 1.34 µM). In addition, the “cell number L. rhamnosus” value with L. rhamnosus [2] (antibiotic 1 μg) was 5.10 × 10^4. Moreover, the “cell number L. paracasei” value in the test on L. paracasei [3] (antibiotic 1 μg) was 3.27 × 10^5. Besides, the “cell number L. delbrueckii” value with L. delbrueckii [4] (antibiotic 1 μg) was 3.45 × 10^5.

Values taken from patent publication US9259450B2, “Use of a fermented soy extract as a prebiotic composition” (MICROBIO CO., LTD., priority 2010, dated 2016).
